Laboratory results reported in PubChem BioAssay AID1918937 (Molecular Pharmacology Branch, DTP, NCI, 2023).
“And” between values parts separate entries of the source, which are not always exact repeats. Equal values may be shown once.

System: 521955-158-R2-J5-PDC complex spheroid viability
Assay: Anticancer human tumor 521955-158-R2-J5-PDC patient-derived pancreatic carcinoma cell line growth inhibition
Settings: for viability, T/C: stronger effect = lower value
How it was run: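 Complex spheroids of tumor cells with HUVEC and human MSCs, exposed to iadademstat combined with other agents. Each agent tested in half-log steps from near clinical Cmax (else 10 microM top), DMSO ≤0.25%.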

[1] = curve of first compound, second compound 0.1 µM
[2] = curve of first compound, second compound 0.316 µM
[3] = curve of first compound, second compound 1 µM
[4] = curve of first compound, second compound 3.16 µM
[5] = curve of first compound, second compound 10 µM
[6] = second compound 0.1 µM, first compound 0.000949 µM
[7] = second compound 0.1 µM, first compound 0.003 µM
[8] = second compound 0.1 µM, first compound 0.00949 µM
[9] = second compound 0.1 µM, first compound 0.03 µM
[10] = second compound 0.1 µM, first compound 0.0949 µM
[11] = second compound 0.1 µM, first compound 0.3 µM
[12] = second compound 0.316 µM, first compound 0.000949 µM
[13] = second compound 0.316 µM, first compound 0.003 µM
[14] = second compound 0.316 µM, first compound 0.00949 µM
[15] = second compound 0.316 µM, first compound 0.03 µM
[16] = second compound 0.316 µM, first compound 0.0949 µM
[17] = second compound 0.316 µM, first compound 0.3 µM
[18] = second compound 1 µM, first compound 0.000949 µM
[19] = second compound 1 µM, first compound 0.003 µM
[20] = second compound 1 µM, first compound 0.00949 µM
[21] = second compound 1 µM, first compound 0.03 µM
[22] = second compound 1 µM, first compound 0.0949 µM
[23] = second compound 1 µM, first compound 0.3 µM
[24] = second compound 3.16 µM, first compound 0.000949 µM
[25] = second compound 3.16 µM, first compound 0.003 µM
[26] = second compound 3.16 µM, first compound 0.00949 µM
[27] = second compound 3.16 µM, first compound 0.03 µM
[28] = second compound 3.16 µM, first compound 0.0949 µM
[29] = second compound 3.16 µM, first compound 0.3 µM
[30] = second compound 10 µM, first compound 0.000949 µM
[31] = second compound 10 µM, first compound 0.003 µM
[32] = second compound 10 µM, first compound 0.00949 µM
[33] = second compound 10 µM, first compound 0.03 µM
[34] = second compound 10 µM, first compound 0.0949 µM
[35] = second compound 10 µM, first compound 0.3 µM
[36] = second compound 0.1 µM, first compound 0.0316 µM
[37] = second compound 0.1 µM, first compound 0.1 µM
[38] = second compound 0.316 µM, first compound 0.0316 µM
[39] = second compound 0.316 µM, first compound 0.1 µM
[40] = second compound 1 µM, first compound 0.0316 µM
[41] = second compound 1 µM, first compound 0.1 µM
[42] = second compound 3.16 µM, first compound 0.0316 µM
[43] = second compound 3.16 µM, first compound 0.1 µM
[44] = second compound 10 µM, first compound 0.0316 µM
[45] = second compound 10 µM, first compound 0.1 µM
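Note: spheroids exposed to agents for seven days.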
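Throughout, for viability, T/C: percent of DMSO vehicle control luminescence viability.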

## CCc1c2c(nc3ccc(O)cc13)-c1cc3c(c(=O)n1C2)COC(=O)[C@]3(O)CC + NC1CCC(NC2CC2c2ccccc2)CC1
[1]
  IC50: < 0.949 nM
[2]
  IC50: < 0.949 nM
[3]
  IC50: < 0.949 nM
[4]
  IC50: < 0.949 nM
[5]
  IC50: < 0.949 nM
[6]
  viability, T/C: 4.35%
[7]
  viability, T/C: 3.31%
[8]
  viability, T/C: 1.16%
[9]
  viability, T/C: 0.45%
[10]
  viability, T/C: 0.43%
[11]
  viability, T/C: 0.63%
[12]
  viability, T/C: 5.2%
[13]
  viability, T/C: 4.07%
[14]
  viability, T/C: 0.9%
[15]
  viability, T/C: 0.54%
[16]
  viability, T/C: 0.4%
[17]
  viability, T/C: 0.58%
[18]
  viability, T/C: 5.26%
[19]
  viability, T/C: 3.09%
[20]
  viability, T/C: 0.97%
[21]
  viability, T/C: 0.59%
[22]
  viability, T/C: 0.52%
[23]
  viability, T/C: 0.46%
[24]
  viability, T/C: 4.43%
[25]
  viability, T/C: 3.74%
[26]
  viability, T/C: 0.95%
[27]
  viability, T/C: 0.3%
[28]
  viability, T/C: 0.53%
[29]
  viability, T/C: 1.4%
[30]
  viability, T/C: 4.7%
[31]
  viability, T/C: 4.29%
[32]
  viability, T/C: 1.07%
[33]
  viability, T/C: 0.67%
[34]
  viability, T/C: 1.68%
[35]
  viability, T/C: 0.55%

## Nc1ncn(C2CC(O)C(CO)S2)c(=O)n1 (stereo unspecified)
Compound 0.000949 µM
  viability, T/C: 103% and 99.3%
Compound 0.003 µM
  viability, T/C: 105% and 110%
Compound 0.00949 µM
  viability, T/C: 104% and 105%
Compound 0.03 µM
  viability, T/C: 93.2% and 90.9%
Compound 0.0949 µM
  viability, T/C: 77.6% and 73.8%
Compound 0.3 µM
  viability, T/C: 41.2% and 53.5%
Curve of compound
  IC50: 226 nM and > 300 nM

## O=C(c1cc(Cc2n[nH]c(=O)c3ccccc23)ccc1F)N1CCN(C(=O)C2CC2)CC1
Compound 0.0316 µM
  viability, T/C: 95.7% and 102%
Compound 0.1 µM
  viability, T/C: 103% and 100%
Compound 0.316 µM
  viability, T/C: 100% and 104%
Compound 1 µM
  viability, T/C: 100% and 97.1%
Compound 3.16 µM
  viability, T/C: 90.8% and 96.1%
Compound 10 µM
  viability, T/C: 55.5% and 78.5%
Curve of compound
  IC50: > 10000 nM

## Nc1ncn(C2CC(O)C(CO)S2)c(=O)n1 (stereo unspecified) + NC1CC1c1ccc(-c2cccc(O)c2)cc1
[1]
  IC50: > 300 nM
[2]
  IC50: > 300 nM
[3]
  IC50: > 300 nM
[4]
  IC50: > 300 nM
[5]
  IC50: > 300 nM
[6]
  viability, T/C: 90.7%
[7]
  viability, T/C: 96.2%
[8]
  viability, T/C: 90.1%
[9]
  viability, T/C: 98%
[10]
  viability, T/C: 85.2%
[11]
  viability, T/C: 64.7%
[12]
  viability, T/C: 98.7%
[13]
  viability, T/C: 94.3%
[14]
  viability, T/C: 93.1%
[15]
  viability, T/C: 89.5%
[16]
  viability, T/C: 76.6%
[17]
  viability, T/C: 69.2%
[18]
  viability, T/C: 98.4%
[19]
  viability, T/C: 90%
[20]
  viability, T/C: 94%
[21]
  viability, T/C: 88.8%
[22]
  viability, T/C: 90%
[23]
  viability, T/C: 75.3%
[24]
  viability, T/C: 98.5%
[25]
  viability, T/C: 101%
[26]
  viability, T/C: 92.7%
[27]
  viability, T/C: 91%
[28]
  viability, T/C: 87.6%
[29]
  viability, T/C: 69.9%
[30]
  viability, T/C: 99%
[31]
  viability, T/C: 105%
[32]
  viability, T/C: 100%
[33]
  viability, T/C: 97.3%
[34]
  viability, T/C: 90.3%
[35]
  viability, T/C: 71.8%

## Cn1ncnc1C1c2n[nH]c(=O)c3cc(F)cc(c23)NC1c1ccc(F)cc1 (stereo unspecified) + NC1CCC(NC2CC2c2ccccc2)CC1
[1]
  IC50: > 100 nM
[2]
  IC50: > 100 nM
[3]
  IC50: > 100 nM
[4]
  IC50: > 100 nM
[5]
  IC50: > 100 nM
Second compound 0.1 µM, first compound 0.000316 µM
  viability, T/C: 109%
Second compound 0.1 µM, first compound 0.001 µM
  viability, T/C: 99.9%
Second compound 0.1 µM, first compound 0.00316 µM
  viability, T/C: 98%
Second compound 0.1 µM, first compound 0.01 µM
  viability, T/C: 94.1%
[36]
  viability, T/C: 83%
[37]
  viability, T/C: 87.3%
Second compound 0.316 µM, first compound 0.000316 µM
  viability, T/C: 103%
Second compound 0.316 µM, first compound 0.001 µM
  viability, T/C: 92.4%
Second compound 0.316 µM, first compound 0.00316 µM
  viability, T/C: 89.8%
Second compound 0.316 µM, first compound 0.01 µM
  viability, T/C: 92.8%
[38]
  viability, T/C: 85.1%
[39]
  viability, T/C: 80.6%
Second compound 1 µM, first compound 0.000316 µM
  viability, T/C: 90.5%
Second compound 1 µM, first compound 0.001 µM
  viability, T/C: 95.5%
Second compound 1 µM, first compound 0.00316 µM
  viability, T/C: 90.1%
Second compound 1 µM, first compound 0.01 µM
  viability, T/C: 87.2%
[40]
  viability, T/C: 81.8%
[41]
  viability, T/C: 73.6%
Second compound 3.16 µM, first compound 0.000316 µM
  viability, T/C: 100%
Second compound 3.16 µM, first compound 0.001 µM
  viability, T/C: 96.5%
Second compound 3.16 µM, first compound 0.00316 µM
  viability, T/C: 95%
Second compound 3.16 µM, first compound 0.01 µM
  viability, T/C: 85.9%
[42]
  viability, T/C: 85.2%
[43]
  viability, T/C: 76.3%
Second compound 10 µM, first compound 0.000316 µM
  viability, T/C: 93.7%
Second compound 10 µM, first compound 0.001 µM
  viability, T/C: 97.2%
Second compound 10 µM, first compound 0.00316 µM
  viability, T/C: 92.8%
Second compound 10 µM, first compound 0.01 µM
  viability, T/C: 84.6%
[44]
  viability, T/C: 82%
[45]
  viability, T/C: 74.2%

## COc1cc(Nc2ncc3c(n2)-c2ccc(Cl)cc2C(c2c(F)cccc2OC)=NC3)ccc1C(=O)O
Compound 0.00316 µM
  viability, T/C: 46.9% and 75.9%
Compound 0.01 µM
  viability, T/C: 56.3% and 81.6%
Compound 0.0316 µM
  viability, T/C: 57.4% and 74.7%
Compound 0.1 µM
  viability, T/C: 46.7% and 67.2%
Compound 0.316 µM
  viability, T/C: 49% and 61.8%
Compound 1 µM
  viability, T/C: 42% and 61.7%
Curve of compound
  IC50: 154 nM and > 1000 nM

## CC(C)c1c(-c2ccccc2)nc2c(C#N)c[nH]n2c1=O + NC1CC1c1ccc(-c2cccc(O)c2)cc1
[1]
  IC50: > 10000 nM
[2]
  IC50: > 10000 nM
[3]
  IC50: > 10000 nM
[4]
  IC50: > 10000 nM
[5]
  IC50: 3300 nM
[36]
  viability, T/C: 48.6%
[37]
  viability, T/C: 55.6%
Second compound 0.1 µM, first compound 0.316 µM
  viability, T/C: 62.2%
Second compound 0.1 µM, first compound 1 µM
  viability, T/C: 46.3%
Second compound 0.1 µM, first compound 3.16 µM
  viability, T/C: 54.8%
Second compound 0.1 µM, first compound 10 µM
  viability, T/C: 56.8%
[38]
  viability, T/C: 54.5%
[39]
  viability, T/C: 55.9%
Second compound 0.316 µM, first compound 0.316 µM
  viability, T/C: 60.8%
Second compound 0.316 µM, first compound 1 µM
  viability, T/C: 56.3%
Second compound 0.316 µM, first compound 3.16 µM
  viability, T/C: 54.5%
Second compound 0.316 µM, first compound 10 µM
  viability, T/C: 46.8%
[40]
  viability, T/C: 65.5%
[41]
  viability, T/C: 70.8%
Second compound 1 µM, first compound 0.316 µM
  viability, T/C: 72.2%
Second compound 1 µM, first compound 1 µM
  viability, T/C: 58.8%
Second compound 1 µM, first compound 3.16 µM
  viability, T/C: 60.6%
Second compound 1 µM, first compound 10 µM
  viability, T/C: 49.5%
[42]
  viability, T/C: 57.6%
[43]
  viability, T/C: 67.2%
Second compound 3.16 µM, first compound 0.316 µM
  viability, T/C: 71.3%
Second compound 3.16 µM, first compound 1 µM
  viability, T/C: 69.8%
Second compound 3.16 µM, first compound 3.16 µM
  viability, T/C: 58.3%
Second compound 3.16 µM, first compound 10 µM
  viability, T/C: 39.7%
[44]
  viability, T/C: 62.9%
[45]
  viability, T/C: 72.7%
Second compound 10 µM, first compound 0.316 µM
  viability, T/C: 70.2%
Second compound 10 µM, first compound 1 µM
  viability, T/C: 61.8%
Second compound 10 µM, first compound 3.16 µM
  viability, T/C: 50.9%
Second compound 10 µM, first compound 10 µM
  viability, T/C: 41.3%
